{"source": "patent US10457710B2", "about": "“Antimicrobial peptides, their variants and uses” (priority 2015, dated 2019)", "assay_type_in_all_cases": "cell-based", "key": {"Candida albicans": {"tested_on": "Candida albicans", "assay": "MIC, clinical yeast strains", "details": "D-form peptide, concentrations tested 0.125 to 128 μg/ml", "in_short": "(§1)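 For A. johnsonii, Mueller Hinton broth; for the clinical yeasts, Potato dextrose broth. In both, 5.0×10^5 cfu/ml was exposed to peptide over 0.125–128 μg/ml for 20–24 h at 37 °C, and MIC was read as the lowest concentration showing no visual growth.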"}, "C. glabrata": {"tested_on": "C. glabrata", "assay": "MIC, clinical yeast strains", "details": "D-form peptide, concentrations tested 0.125 to 128 μg/ml", "in_short": "as §1"}, "C. parapsilosis": {"tested_on": "C. parapsilosis", "assay": "MIC, clinical yeast strains", "details": "D-form peptide, concentrations tested 0.125 to 128 μg/ml", "in_short": "as §1"}, "[1]": {"tested_on": "clinical strains of Serratia marcescens", "assay": "MIC, microdilution, clinical strains", "details": "0.02% BSA, 0.2% acetic acid", "in_short": "(§2)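 MIC = lowest peptide concentration without visual growth after 20–24 h at 37° C. Range 0.125–128 μg/ml, inoculum 5.0×10^5 cfu/ml, microdilution format. Antifungal tests used potato dextrose broth; bacterial tests used MH broth.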"}, "[2]": {"tested_on": "clinical strains of K. pneumoniae", "assay": "MIC, microdilution, clinical strains", "details": "0.02% BSA, 0.2% acetic acid", "in_short": "as §2"}, "[3]": {"tested_on": "clinical strains of Proteus mirabilis", "assay": "MIC, microdilution, clinical strains", "details": "0.02% BSA, 0.2% acetic acid", "in_short": "as §2"}, "[4]": {"tested_on": "clinical strains of E. coli", "assay": "MIC, microdilution, clinical strains", "details": "microdilution, Muller Hinton broth-cation adjusted, 0.02% BSA, 0.2% acetic acid", "in_short": "as §2"}, "[5]": {"tested_on": "clinical strains of E. cloacae", "assay": "MIC, microdilution, clinical strains", "details": "0.02% BSA, 0.2% acetic acid", "in_short": "as §2"}, "[6]": {"tested_on": "clinical strains of S. aureus", "assay": "MIC, microdilution, clinical strains", "details": "0.02% BSA, 0.2% acetic acid", "in_short": "as §2"}, "[7]": {"tested_on": "clinical strains of P. aeruginosa", "assay": "MIC, microdilution, clinical strains", "details": "0.02% BSA, 0.2% acetic acid", "in_short": "as §2"}, "[8]": {"tested_on": "clinical strains of S. pneumoniae", "assay": "MIC, microdilution, clinical strains", "details": "0.02% BSA, 0.2% acetic acid", "in_short": "as §2"}, "C. quillermondiae": {"tested_on": "C. quillermondiae", "assay": "MIC, clinical yeast strains", "details": "clinical yeast strain 1; D-form peptide; concentrations tested 0.125 to 128 μg/ml", "in_short": "as §1"}, "[9]": {"tested_on": "clinical strains of A. johnsonii", "assay": "MIC, microdilution, clinical strains", "set-up": "unit: μg/ml", "details": "Acinetobacter johnsonii strain 1, Muller Hinton broth-cation adjusted, 0.02% BSA, 0.2% acetic acid", "in_short": "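Overnight MH agar colonies were suspended in MH broth to 5.0×10^5 cfu/ml, mixed with serial peptide dilutions (0.125–128 μg/ml) and incubated at 37° C for 20 to 24 hours. Yeast MICs were run the same way in potato dextrose broth, and wells were scored visually.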"}, "[10]": {"tested_on": "clinical strains of Acinetobacter baumannii", "assay": "MIC, microdilution, clinical strains", "set-up": "unit: μg/ml", "details": "0.02% BSA, 0.2% acetic acid", "in_short": "as §2"}}, "note": "Where a SMILES comes first, the peptide text is derived from it. [ ]: non-standard residue; d: D form.", "data": [{"smiles": "CC[C@@H](C)[C@@H](NC(=O)[C@@H](CCSC)NC(=O)[C@@H](C)NC(=O)[C@@H](CCCNC(=N)N)NC(=O)[C@@H](Cc1c[nH]c2ccccc12)NC(=O)[C@@H](CCCCN)NC(=O)[C@H](N)CCCNC(=N)N)C(=O)N[C@H](CCCNC(=N)N)C(=O)N[C@H](CC(C)C)C(=O)N[C@H](Cc1c[nH]cn1)C(=O)N[C@H](C)C(=O)N[C@H](CCCCN)C(=O)N[C@H](Cc1c[nH]c2ccccc12)C(=O)N[C@H](CC(C)C)C(=O)N[C@H](CCCNC(=N)N)C(=O)N[C@H](CCCCN)C(=O)O", "note": "[Chain105D] (H-[dR][dK][dW][dR][dA][dM][dI][dR][dL][dH][dA][dK][dW][dL][dR][dK]-OH)", "values": [{"measurement": "Minimum inhibitory concentration, Candida albicans strain 1", "setting": "Candida albicans; clinical yeast strain 1", "result": 32}, {"measurement": "Minimum inhibitory concentration, Candida albicans strain 2", "setting": "Candida albicans; clinical yeast strain 2", "result": 16}, {"measurement": "Minimum inhibitory concentration, Candida albicans strain 3", "setting": "Candida albicans; clinical yeast strain 3", "result": 32}, {"measurement": "Minimum inhibitory concentration, Candida albicans strain 4", "setting": "Candida albicans; clinical yeast strain 4", "result": 32}, {"measurement": "Minimum inhibitory concentration, Candida albicans strain 5", "setting": "Candida albicans; clinical yeast strain 5", "result": 32}, {"measurement": "Minimum inhibitory concentration, C. glabrata strain 1", "setting": "C. glabrata; clinical yeast strain 1", "result": 16}, {"measurement": "Minimum inhibitory concentration, C. glabrata strain 2", "setting": "C. glabrata; clinical yeast strain 2", "result": 16}, {"measurement": "Minimum inhibitory concentration, C. glabrata strain 3", "setting": "C. glabrata; clinical yeast strain 3", "result": 8}, {"measurement": "Minimum inhibitory concentration, C. glabrata strain 4", "setting": "C. glabrata; clinical yeast strain 4", "result": 32}, {"measurement": "Minimum inhibitory concentration, C. parapsilosis strain 1", "setting": "C. parapsilosis; clinical yeast strain 1", "result": 8}, {"measurement": "Minimum inhibitory concentration, C. parapsilosis strain 2", "setting": "C. parapsilosis; clinical yeast strain 2", "result": 8}, {"measurement": "Minimum inhibitory concentration, C. parapsilosis strain 3", "setting": "C. parapsilosis; clinical yeast strain 3", "result": 8}, {"measurement": "Minimum inhibitory concentration, C. parapsilosis strain 4", "setting": "C. parapsilosis; clinical yeast strain 4", "result": 4}, {"measurement": "Minimum inhibitory concentration", "setting": "[1]; Serratia marcescens strain 1, Muller Hinton broth-cation adjusted", "result": 128}, {"measurement": "Minimum inhibitory concentration", "setting": "[1]; Serratia marcescens strain 2, Muller Hinton broth-cation adjusted", "result": 128}, {"measurement": "Minimum inhibitory concentration", "setting": "[1]; Serratia marcescens strain 3, Muller Hinton broth-cation adjusted", "result": 128}, {"measurement": "Minimum inhibitory concentration", "setting": "[1]; Serratia marcescens strain 4, Muller Hinton broth-cation adjusted", "result": 128}, {"measurement": "Minimum inhibitory concentration", "setting": "[1]; Serratia marcescens strain 5, Muller Hinton broth-cation adjusted", "result": 128}, {"measurement": "Minimum inhibitory concentration", "setting": "[2]; Klebsiella pneumoniae strain 1, Muller Hinton broth-cation adjusted", "result": 4}, {"measurement": "Minimum inhibitory concentration", "setting": "[2]; Klebsiella pneumoniae strain 2, Muller Hinton broth-cation adjusted", "result": 2}, {"measurement": "Minimum inhibitory concentration", "setting": "[2]; Klebsiella pneumoniae strain 3, Muller Hinton broth-cation adjusted", "result": 4}, {"measurement": "Minimum inhibitory concentration", "setting": "[2]; Klebsiella pneumoniae strain 4, Muller Hinton broth-cation adjusted", "result": 4}, {"measurement": "Minimum inhibitory concentration", "setting": "[2]; Klebsiella pneumoniae strain 5, Muller Hinton broth-cation adjusted", "result": 2}, {"measurement": "Minimum inhibitory concentration", "setting": "[3]; Proteus mirabilis strain 1, Muller Hinton broth-cation adjusted", "result": ">128"}, {"measurement": "Minimum inhibitory concentration", "setting": "[3]; Proteus mirabilis strain 2, Muller Hinton broth-cation adjusted", "result": 32}, {"measurement": "Minimum inhibitory concentration", "setting": "[3]; Proteus mirabilis strain 3, Muller Hinton broth-cation adjusted", "result": 64}, {"measurement": "Minimum inhibitory concentration", "setting": "[3]; Proteus mirabilis strain 4, Muller Hinton broth-cation adjusted", "result": ">128"}, {"measurement": "Minimum inhibitory concentration", "setting": "[3]; Proteus mirabilis strain 5, Muller Hinton broth-cation adjusted", "result": ">128"}, {"measurement": "Minimum inhibitory concentration", "setting": "[4]; Escherichia coli strain 1", "result": 1}, {"measurement": "Minimum inhibitory concentration", "setting": "[4]; Escherichia coli strain 2", "result": 4}, {"measurement": "Minimum inhibitory concentration", "setting": "[4]; Escherichia coli strain 3", "result": 1}, {"measurement": "Minimum inhibitory concentration", "setting": "[4]; Escherichia coli strain 4", "result": 1}, {"measurement": "Minimum inhibitory concentration", "setting": "[4]; Escherichia coli strain 5", "result": 2}, {"measurement": "Minimum inhibitory concentration", "setting": "[5]; Enterobacter cloacae strain 1, Muller Hinton broth-cation adjusted", "result": 2}, {"measurement": "Minimum inhibitory concentration", "setting": "[5]; Enterobacter cloacae strain 2, Muller Hinton broth-cation adjusted", "result": 2}, {"measurement": "Minimum inhibitory concentration", "setting": "[5]; Enterobacter cloacae strain 3, Muller Hinton broth-cation adjusted", "result": 2}, {"measurement": "Minimum inhibitory concentration", "setting": "[5]; Enterobacter cloacae strain 4, Muller Hinton broth-cation adjusted", "result": 2}, {"measurement": "Minimum inhibitory concentration", "setting": "[5]; Enterobacter cloacae strain 5, Muller Hinton broth-cation adjusted", "result": 1}, {"measurement": "Minimum inhibitory concentration", "setting": "[6]; Staphylococcus aureus strain 1, Muller Hinton broth-cation adjusted", "result": 2}, {"measurement": "Minimum inhibitory concentration", "setting": "[6]; Staphylococcus aureus strain 2, Muller Hinton broth-cation adjusted", "result": 2}, {"measurement": "Minimum inhibitory concentration", "setting": "[6]; Staphylococcus aureus strain 3, Muller Hinton broth-cation adjusted", "result": 2}, {"measurement": "Minimum inhibitory concentration", "setting": "[6]; Staphylococcus aureus strain 4, Muller Hinton broth-cation adjusted", "result": 2}, {"measurement": "Minimum inhibitory concentration", "setting": "[6]; Staphylococcus aureus strain 5, Muller Hinton broth-cation adjusted", "result": 2}, {"measurement": "Minimum inhibitory concentration", "setting": "[7]; Pseudomonas aeruginosa strain 1, Muller Hinton broth-cation adjusted", "result": 4}, {"measurement": "Minimum inhibitory concentration", "setting": "[7]; Pseudomonas aeruginosa strain 2, Muller Hinton broth-cation adjusted", "result": 4}, {"measurement": "Minimum inhibitory concentration", "setting": "[7]; Pseudomonas aeruginosa strain 3, Muller Hinton broth-cation adjusted", "result": 4}, {"measurement": "Minimum inhibitory concentration", "setting": "[7]; Pseudomonas aeruginosa strain 4, Muller Hinton broth-cation adjusted", "result": 4}, {"measurement": "Minimum inhibitory concentration", "setting": "[7]; Pseudomonas aeruginosa strain 5, Muller Hinton broth-cation adjusted", "result": 4}, {"measurement": "Minimum inhibitory concentration", "setting": "[8]; Streptococcus pneumoniae strain 1, Muller Hinton broth-cation adjusted", "result": 4}, {"measurement": "Minimum inhibitory concentration", "setting": "[8]; Streptococcus pneumoniae strain 2, Muller Hinton broth-cation adjusted", "result": 2}, {"measurement": "Minimum inhibitory concentration", "setting": "[8]; Streptococcus pneumoniae strain 3, Muller Hinton broth-cation adjusted", "result": 2}, {"measurement": "Minimum inhibitory concentration", "setting": "[8]; Streptococcus pneumoniae strain 4, Muller Hinton broth-cation adjusted", "result": 4}, {"measurement": "Minimum inhibitory concentration", "setting": "[8]; Streptococcus pneumoniae strain 5, Muller Hinton broth-cation adjusted", "result": 2}, {"measurement": "Minimum inhibitory concentration, C. quillermondiae strain 1", "setting": "C. quillermondiae", "result": 8}, {"measurement": "Minimum inhibitory concentration", "setting": "[9]", "result": 4}, {"measurement": "Minimum inhibitory concentration", "setting": "[10]; Acinetobacter baumannii strain 1, Muller Hinton broth-cation adjusted", "result": 4}, {"measurement": "Minimum inhibitory concentration", "setting": "[10]; Acinetobacter baumannii strain 2, Muller Hinton broth-cation adjusted", "result": 4}, {"measurement": "Minimum inhibitory concentration", "setting": "[10]; Acinetobacter baumannii strain 3, Muller Hinton broth-cation adjusted", "result": 4}, {"measurement": "Minimum inhibitory concentration", "setting": "[10]; Acinetobacter baumannii strain 4, Muller Hinton broth-cation adjusted", "result": 2}, {"measurement": "Minimum inhibitory concentration", "setting": "[10]; Acinetobacter baumannii strain 5, Muller Hinton broth-cation adjusted", "result": 4}]}]}
